Source: paper PMC11204201 (Science Advances, 2024)

What was measured:
OleT = molecular target: T1, OleT (Jeotgalicoccus sp. ATCC 8456, UniProt E9NSU2); experiment: 1-undecene production, total turnover; format: biochemical; details: CamAB redox partner system
T1 sequence (E9NSU2 1-422): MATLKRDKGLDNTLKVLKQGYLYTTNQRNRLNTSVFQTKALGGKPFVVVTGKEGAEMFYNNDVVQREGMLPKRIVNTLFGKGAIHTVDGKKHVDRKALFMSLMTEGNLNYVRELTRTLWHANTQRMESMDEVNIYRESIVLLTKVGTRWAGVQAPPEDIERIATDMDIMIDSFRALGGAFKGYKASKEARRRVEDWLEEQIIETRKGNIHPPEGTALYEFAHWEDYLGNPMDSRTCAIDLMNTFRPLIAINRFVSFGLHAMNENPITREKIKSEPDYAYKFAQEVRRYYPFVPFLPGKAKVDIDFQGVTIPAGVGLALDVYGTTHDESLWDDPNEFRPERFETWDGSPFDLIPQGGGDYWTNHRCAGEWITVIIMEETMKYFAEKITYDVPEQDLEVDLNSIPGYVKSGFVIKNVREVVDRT

UndA = molecular target: T2, UndA (Pseudomonas putida, UniProt A5W7G6); experiment: 1-undecene production, total turnover; format: biochemical; details: optimal conditions of UndA; details in supplement
T2 sequence (A5W7G6 1-271): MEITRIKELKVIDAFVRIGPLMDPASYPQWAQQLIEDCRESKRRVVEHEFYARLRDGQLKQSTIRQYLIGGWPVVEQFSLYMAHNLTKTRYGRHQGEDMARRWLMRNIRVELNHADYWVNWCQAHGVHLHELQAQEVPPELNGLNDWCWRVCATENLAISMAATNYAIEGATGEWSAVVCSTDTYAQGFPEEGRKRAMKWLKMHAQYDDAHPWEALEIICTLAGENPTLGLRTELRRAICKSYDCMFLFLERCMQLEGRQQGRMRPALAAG

CCCCCCCCCCCC(=O)O [compound 5, lauric acid]
1-undecene production, total turnover (OleT): UndB, OleT, and OleT-AldO showed substantial 1-undecene production (fig. S6) | 1-undecene production, total turnover (UndA): While UndA exhibited poor activity
